The kinase profiling compilation of Christmann-Franck et al. (2016)

Experiments:
Test in all cases: KINOMEscan competition binding
Conditions in all cases: compound 10.0 µM
[1] = molecular target: MAPK9 (human) (UniProt P45984)
[2] = molecular target: HUNK (human) (UniProt P57058)
[3] = molecular target: MYLK2 (human) (UniProt Q9H1R3)
[4] = molecular target: RPS6KA1 KD2 (human) (UniProt Q15418)
[5] = molecular target: ERBB4 (human) (UniProt Q15303)
[6] = molecular target: GSK3A (human) (UniProt P49840)
[7] = molecular target: HIPK3 (human) (UniProt Q9H422)
[8] = molecular target: PI4KB (human) (UniProt Q9UBF8)
[9] = molecular target: STK39 (human) (UniProt Q9UEW8)
[10] = molecular target: CSNK1G1 (human) (UniProt Q9HCP0)
[11] = molecular target: RPS6KA2 KD1 (human) (UniProt Q15349)
[12] = molecular target: PIP4K2C (human) (UniProt Q8TBX8)
PIP4K2C (human), sequence (Q8TBX8 whole entry, looked up): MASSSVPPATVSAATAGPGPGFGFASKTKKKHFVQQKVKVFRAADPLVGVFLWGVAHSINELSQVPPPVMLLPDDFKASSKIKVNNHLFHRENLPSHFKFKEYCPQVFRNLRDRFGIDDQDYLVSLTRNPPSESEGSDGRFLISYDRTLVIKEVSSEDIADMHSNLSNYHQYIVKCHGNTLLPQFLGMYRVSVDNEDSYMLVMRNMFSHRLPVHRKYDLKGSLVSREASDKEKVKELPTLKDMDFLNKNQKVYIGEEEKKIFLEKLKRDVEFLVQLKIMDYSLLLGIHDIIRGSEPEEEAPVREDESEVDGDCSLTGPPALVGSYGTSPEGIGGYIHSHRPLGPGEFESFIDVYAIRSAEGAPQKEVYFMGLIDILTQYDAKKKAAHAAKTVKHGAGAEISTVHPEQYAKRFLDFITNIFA

[13] = molecular target: FYN (human) (UniProt P06241)
[14] = molecular target: ROCK2 (human) (UniProt O75116)
[15] = molecular target: NIM1 (human) (UniProt Q8IY84)
[16] = molecular target: JAK1 JH2 pseudokinase (human) (UniProt P23458)
[17] = molecular target: PLK3 (human) (UniProt Q9H4B4)
[18] = molecular target: PIP4K2B (human) (UniProt P78356)
[19] = molecular target: EPHA5 (human) (UniProt P54756)
[20] = molecular target: ROS1 (human) (UniProt P08922)
[21] = molecular target: DSTYK (human) (UniProt Q6XUX3)
[22] = molecular target: ULK2 (human) (UniProt Q8IYT8)
[23] = molecular target: MLTK (human) (UniProt Q9NYL2)
[24] = molecular target: CDC2L2 (human) (UniProt Q9UQ88)
[25] = molecular target: LIMK1 (human) (UniProt P53667)
[26] = molecular target: PRKACA (human) (UniProt P17612)
[27] = molecular target: EGFR (human) (UniProt P00533)
EGFR (human), sequence (P00533 whole entry, looked up): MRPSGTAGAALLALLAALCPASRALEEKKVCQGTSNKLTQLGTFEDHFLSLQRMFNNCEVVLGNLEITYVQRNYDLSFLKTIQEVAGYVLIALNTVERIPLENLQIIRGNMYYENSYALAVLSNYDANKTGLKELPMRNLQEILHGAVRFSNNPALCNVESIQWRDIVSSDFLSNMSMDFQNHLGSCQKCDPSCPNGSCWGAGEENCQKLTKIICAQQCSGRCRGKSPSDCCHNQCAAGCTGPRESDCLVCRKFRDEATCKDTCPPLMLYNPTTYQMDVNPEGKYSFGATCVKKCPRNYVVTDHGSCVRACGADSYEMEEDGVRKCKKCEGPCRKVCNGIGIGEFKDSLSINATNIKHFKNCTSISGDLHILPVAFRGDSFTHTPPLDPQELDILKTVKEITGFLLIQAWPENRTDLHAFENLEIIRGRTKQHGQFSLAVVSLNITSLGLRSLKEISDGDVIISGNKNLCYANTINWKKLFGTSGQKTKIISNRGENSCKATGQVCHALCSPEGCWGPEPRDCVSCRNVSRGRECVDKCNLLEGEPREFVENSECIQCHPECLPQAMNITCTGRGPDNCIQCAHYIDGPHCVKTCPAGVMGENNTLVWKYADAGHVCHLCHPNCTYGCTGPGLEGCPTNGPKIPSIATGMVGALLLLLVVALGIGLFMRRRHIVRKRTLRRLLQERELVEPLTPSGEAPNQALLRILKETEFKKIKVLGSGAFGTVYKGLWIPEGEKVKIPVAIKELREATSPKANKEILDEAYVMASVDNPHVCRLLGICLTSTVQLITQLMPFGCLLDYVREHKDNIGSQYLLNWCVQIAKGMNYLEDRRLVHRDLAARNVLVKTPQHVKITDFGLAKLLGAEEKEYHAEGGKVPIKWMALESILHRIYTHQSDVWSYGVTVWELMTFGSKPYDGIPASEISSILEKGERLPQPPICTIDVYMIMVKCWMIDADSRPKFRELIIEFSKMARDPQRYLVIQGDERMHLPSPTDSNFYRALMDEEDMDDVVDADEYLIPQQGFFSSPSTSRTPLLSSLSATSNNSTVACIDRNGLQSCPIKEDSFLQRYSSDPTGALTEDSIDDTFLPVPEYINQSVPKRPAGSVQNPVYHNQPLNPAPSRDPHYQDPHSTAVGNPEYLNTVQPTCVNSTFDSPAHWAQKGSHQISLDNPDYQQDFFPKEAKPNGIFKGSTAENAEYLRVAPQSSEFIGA

[28] = molecular target: DYRK1A (human) (UniProt Q13627)
[29] = molecular target: NEK1 (human) (UniProt Q96PY6)
[30] = molecular target: TGFBR1 (human) (UniProt P36897)
[31] = system: KIT (human), P10721 [A829P]
[32] = molecular target: BTK (human) (UniProt Q06187)
[33] = molecular target: MAP4K3 (human) (UniProt Q8IVH8)
MAP4K3 (human), sequence (Q8IVH8 whole entry, looked up): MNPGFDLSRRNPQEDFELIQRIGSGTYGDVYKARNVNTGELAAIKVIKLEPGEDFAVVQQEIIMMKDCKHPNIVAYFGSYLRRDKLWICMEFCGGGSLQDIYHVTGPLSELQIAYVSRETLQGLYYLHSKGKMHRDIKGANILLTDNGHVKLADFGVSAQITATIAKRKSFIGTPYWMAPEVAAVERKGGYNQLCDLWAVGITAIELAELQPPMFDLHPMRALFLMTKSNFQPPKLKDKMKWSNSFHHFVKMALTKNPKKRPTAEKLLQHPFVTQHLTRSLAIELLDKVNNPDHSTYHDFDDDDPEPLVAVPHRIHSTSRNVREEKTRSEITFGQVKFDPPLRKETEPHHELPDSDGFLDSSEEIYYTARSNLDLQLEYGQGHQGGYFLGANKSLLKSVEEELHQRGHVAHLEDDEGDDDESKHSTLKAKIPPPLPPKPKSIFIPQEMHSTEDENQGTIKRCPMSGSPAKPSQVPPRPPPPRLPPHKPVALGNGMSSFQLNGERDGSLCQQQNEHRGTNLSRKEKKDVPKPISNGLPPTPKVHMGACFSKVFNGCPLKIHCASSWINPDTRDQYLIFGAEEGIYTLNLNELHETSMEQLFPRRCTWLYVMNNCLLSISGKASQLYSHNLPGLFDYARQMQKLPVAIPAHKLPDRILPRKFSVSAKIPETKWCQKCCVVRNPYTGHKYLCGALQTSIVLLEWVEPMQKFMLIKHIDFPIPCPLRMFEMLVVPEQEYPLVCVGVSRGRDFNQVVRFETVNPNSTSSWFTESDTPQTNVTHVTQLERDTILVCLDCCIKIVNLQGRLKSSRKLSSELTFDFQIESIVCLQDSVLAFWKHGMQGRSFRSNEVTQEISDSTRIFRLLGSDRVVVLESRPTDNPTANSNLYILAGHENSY

[34] = molecular target: CDK19 (human) (UniProt Q9BWU1)
[35] = molecular target: TAOK1 (human) (UniProt Q7L7X3)
[36] = molecular target: MAP3K2 (human) (UniProt Q9Y2U5)
MAP3K2 (human), sequence (Q9Y2U5 whole entry, looked up): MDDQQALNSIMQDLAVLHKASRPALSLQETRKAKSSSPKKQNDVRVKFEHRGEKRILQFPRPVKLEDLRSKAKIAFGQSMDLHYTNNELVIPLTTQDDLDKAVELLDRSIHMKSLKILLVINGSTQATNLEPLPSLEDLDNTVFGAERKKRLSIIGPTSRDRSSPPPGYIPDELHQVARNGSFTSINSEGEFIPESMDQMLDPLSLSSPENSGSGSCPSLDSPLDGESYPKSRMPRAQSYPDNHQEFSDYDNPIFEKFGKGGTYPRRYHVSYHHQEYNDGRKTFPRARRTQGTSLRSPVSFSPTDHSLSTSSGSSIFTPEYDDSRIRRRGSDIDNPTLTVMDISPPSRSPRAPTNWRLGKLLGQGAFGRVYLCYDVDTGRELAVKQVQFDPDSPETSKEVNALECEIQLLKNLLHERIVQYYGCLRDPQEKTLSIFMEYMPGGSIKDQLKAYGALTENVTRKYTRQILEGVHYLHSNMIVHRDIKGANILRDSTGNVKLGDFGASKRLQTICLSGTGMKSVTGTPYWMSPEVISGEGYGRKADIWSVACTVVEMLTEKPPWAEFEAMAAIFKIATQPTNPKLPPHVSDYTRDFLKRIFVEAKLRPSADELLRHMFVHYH

[37] = molecular target: PDGFRB (human) (UniProt P09619)
PDGFRB (human), sequence (P09619 whole entry, looked up): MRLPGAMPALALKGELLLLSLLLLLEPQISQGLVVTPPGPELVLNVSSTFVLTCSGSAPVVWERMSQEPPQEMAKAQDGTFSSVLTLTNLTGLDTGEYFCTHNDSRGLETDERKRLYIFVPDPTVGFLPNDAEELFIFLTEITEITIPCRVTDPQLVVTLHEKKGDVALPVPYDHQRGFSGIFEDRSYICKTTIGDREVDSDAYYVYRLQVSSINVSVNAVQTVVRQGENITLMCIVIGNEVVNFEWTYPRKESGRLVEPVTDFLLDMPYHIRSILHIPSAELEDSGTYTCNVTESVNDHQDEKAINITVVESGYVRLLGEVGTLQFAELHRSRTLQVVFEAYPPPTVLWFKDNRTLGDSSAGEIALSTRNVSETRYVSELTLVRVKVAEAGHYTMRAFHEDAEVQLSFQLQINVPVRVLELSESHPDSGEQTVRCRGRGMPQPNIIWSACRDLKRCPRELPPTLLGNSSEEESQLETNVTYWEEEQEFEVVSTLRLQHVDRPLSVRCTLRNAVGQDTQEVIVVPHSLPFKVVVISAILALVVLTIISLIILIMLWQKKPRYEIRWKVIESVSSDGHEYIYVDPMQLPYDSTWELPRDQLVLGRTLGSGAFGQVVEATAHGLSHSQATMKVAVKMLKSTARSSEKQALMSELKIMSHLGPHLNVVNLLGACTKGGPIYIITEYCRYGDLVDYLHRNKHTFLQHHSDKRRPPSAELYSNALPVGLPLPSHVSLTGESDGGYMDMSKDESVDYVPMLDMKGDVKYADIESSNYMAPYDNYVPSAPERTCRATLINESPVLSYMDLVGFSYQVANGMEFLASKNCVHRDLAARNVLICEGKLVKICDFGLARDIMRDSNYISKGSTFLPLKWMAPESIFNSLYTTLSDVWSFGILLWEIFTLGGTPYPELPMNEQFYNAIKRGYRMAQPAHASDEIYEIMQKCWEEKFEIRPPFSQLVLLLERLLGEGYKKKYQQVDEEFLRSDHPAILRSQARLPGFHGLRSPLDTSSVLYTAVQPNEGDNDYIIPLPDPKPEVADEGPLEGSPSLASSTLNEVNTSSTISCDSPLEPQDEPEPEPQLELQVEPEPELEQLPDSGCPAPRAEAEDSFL

[38] = molecular target: ULK1 (human) (UniProt O75385)
[39] = molecular target: AURKA (human) (UniProt O14965)
[40] = molecular target: MARK3 (human) (UniProt P27448)
MARK3 (human), sequence (P27448 whole entry, looked up): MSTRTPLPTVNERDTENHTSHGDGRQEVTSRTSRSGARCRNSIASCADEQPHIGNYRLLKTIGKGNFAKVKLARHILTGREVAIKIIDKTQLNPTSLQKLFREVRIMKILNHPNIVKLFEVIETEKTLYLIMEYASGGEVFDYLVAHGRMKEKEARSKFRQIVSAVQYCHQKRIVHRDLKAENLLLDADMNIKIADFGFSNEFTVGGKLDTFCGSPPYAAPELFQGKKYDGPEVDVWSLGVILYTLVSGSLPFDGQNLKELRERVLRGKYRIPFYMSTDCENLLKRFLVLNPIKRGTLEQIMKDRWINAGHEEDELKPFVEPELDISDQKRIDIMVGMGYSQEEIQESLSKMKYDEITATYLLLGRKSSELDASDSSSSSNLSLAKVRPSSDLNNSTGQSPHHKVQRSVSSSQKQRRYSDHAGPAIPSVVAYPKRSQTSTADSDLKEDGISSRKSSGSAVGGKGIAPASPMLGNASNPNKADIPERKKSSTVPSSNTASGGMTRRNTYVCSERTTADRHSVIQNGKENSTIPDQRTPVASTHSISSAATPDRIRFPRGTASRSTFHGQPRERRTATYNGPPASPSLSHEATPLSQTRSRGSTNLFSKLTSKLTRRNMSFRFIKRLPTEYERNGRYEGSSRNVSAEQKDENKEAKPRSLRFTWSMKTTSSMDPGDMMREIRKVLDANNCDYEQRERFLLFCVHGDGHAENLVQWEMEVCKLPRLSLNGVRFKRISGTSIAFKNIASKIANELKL

Structure (SMILES) | kinase still bound, per cent of control [1] [%] | kinase still bound, per cent of control [2] [%] | kinase still bound, per cent of control [3] [%] | kinase still bound, per cent of control [4] [%] | kinase still bound, per cent of control [5] [%] | kinase still bound, per cent of control [6] [%] | kinase still bound, per cent of control [7] [%] | kinase still bound, per cent of control [8] [%] | kinase still bound, per cent of control [9] [%] | kinase still bound, per cent of control [10] [%] | kinase still bound, per cent of control [11] [%] | kinase still bound, per cent of control [12] [%] | kinase still bound, per cent of control [13] [%] | kinase still bound, per cent of control [14] [%] | kinase still bound, per cent of control [15] [%] | kinase still bound, per cent of control [16] [%] | kinase still bound, per cent of control [17] [%] | kinase still bound, per cent of control [18] [%] | kinase still bound, per cent of control [19] [%] | kinase still bound, per cent of control [20] [%] | other results
O=c1[nH]c2ccccc2n1C1CCN(Cc2ccc(-c3nc4cc5[nH]cnc5cc4nc3-c3ccccc3)cc2)CC1 | 91 | 72 | 86 | 100 | 66 | 100 | 87 | 60 | 100 | 100 | 51 | 83 | 100 | 73 | 71 | 79 | 94 | 88 | 100 | 50 | kinase still bound, per cent of control [21]: 76%; kinase still bound, per cent of control [22]: 88%; kinase still bound, per cent of control [23]: 92%; kinase still bound, per cent of control [24]: 100%; kinase still bound, per cent of control [25]: 86%; kinase still bound, per cent of control [26]: 100%; kinase still bound, per cent of control [27]: 65%; kinase still bound, per cent of control [28]: 90%; kinase still bound, per cent of control [29]: 100%; kinase still bound, per cent of control [30]: 100%; kinase still bound, per cent of control [31]: 100%; kinase still bound, per cent of control [32]: 100%; kinase still bound, per cent of control [33]: 100%; kinase still bound, per cent of control [34]: 75%; kinase still bound, per cent of control [35]: 91%; kinase still bound, per cent of control [36]: 100%; kinase still bound, per cent of control [37]: 72%; kinase still bound, per cent of control [38]: 78%; kinase still bound, per cent of control [39]: 68%; kinase still bound, per cent of control [40]: 72%
COc1cc2ncnc(Nc3cccc(Cl)c3)c2cc1OC | 18 | 69 | 40 | 28 | 3.5 | 84 | 54 | 44 | 57 | 100 | 85 | 31 | 81 | 39 | 77 | 38 | 85 | 97 | 55 | 61 | kinase still bound, per cent of control [21]: 43%; kinase still bound, per cent of control [22]: 87%; kinase still bound, per cent of control [23]: 94%; kinase still bound, per cent of control [24]: 77%; kinase still bound, per cent of control [25]: 100%; kinase still bound, per cent of control [26]: 94%; kinase still bound, per cent of control [27]: 0.05%; kinase still bound, per cent of control [28]: 40%; kinase still bound, per cent of control [29]: 77%; kinase still bound, per cent of control [30]: 88%; kinase still bound, per cent of control [31]: 27%; kinase still bound, per cent of control [32]: 70%; kinase still bound, per cent of control [33]: 100%; kinase still bound, per cent of control [34]: 93%; kinase still bound, per cent of control [35]: 38%; kinase still bound, per cent of control [36]: 30%; kinase still bound, per cent of control [37]: 30%; kinase still bound, per cent of control [38]: 75%; kinase still bound, per cent of control [39]: 43%; kinase still bound, per cent of control [40]: 100%
C=CC(=O)Nc1ccc(C(=O)c2sc(Nc3ccc(N4CCN(C)CC4)cc3OC)nc2N)cc1 | 7 | 33 | 66 | 0.3 | 61 | 67 | 42 | 18 | 0 | 18 | 97 | 20 | 83 | 24 | 91 | 65 | 7.8 | 32 | 89 | 38 | kinase still bound, per cent of control [21]: 4.7%; kinase still bound, per cent of control [22]: 9.4%; kinase still bound, per cent of control [23]: 100%; kinase still bound, per cent of control [24]: 87%; kinase still bound, per cent of control [25]: 79%; kinase still bound, per cent of control [26]: 100%; kinase still bound, per cent of control [27]: 84%; kinase still bound, per cent of control [28]: 0.15%; kinase still bound, per cent of control [29]: 64%; kinase still bound, per cent of control [30]: 96%; kinase still bound, per cent of control [31]: 63%; kinase still bound, per cent of control [32]: 94%; kinase still bound, per cent of control [33]: 60%; kinase still bound, per cent of control [34]: 100%; kinase still bound, per cent of control [35]: 32%; kinase still bound, per cent of control [36]: 68%; kinase still bound, per cent of control [37]: 54%; kinase still bound, per cent of control [38]: 5.1%; kinase still bound, per cent of control [39]: 93%; kinase still bound, per cent of control [40]: 100%
